Data from a melting point compilation (Tetko et al.; mined from patent text by program, amines drawn as free bases though some values may be those of a salt).

SMILES | melting point
CCCCCc1ccc(C=Cc2cc3sc(C=Cc4ccc(CCCCC)cc4)cc3s2)cc1 | 320 °C
COc1ccc(Cc2nnc3c4ccccc4c(Nc4cccc(-c5nnn(C)n5)c4)nn23)cc1 | 262 to 264 °C
COc1ccc(C(=O)Nc2ccccc2)cc1NCc1ccc(OC)c(OC)c1 | 187 to 188 °C
CCCCCCCC1(C(=O)OC)CCC(C2CCC(CCC)CC2)CC1 (stereo not given) | 49 °C
Nc1nc2ccccc2c2c1ncn2CC1(O)CCCC1 | 254 to 255 °C
N#CCCNC(=S)C1=CC(CF)(CF)Oc2ccc(C(F)(F)F)cc21 | 105 to 106 °C
Fc1ccc(Oc2ccnc3cc(Cl)ccc23)cc1 | 89 to 91 °C
Nc1ncc(CN2CCN(c3ccccc3)CC2)c2nc(-c3ccco3)nn12 | 185 to 187 °C
C=CC(=Cc1ccccc1)N(C)C | 72 to 74 °C
COc1nc2nc(SCc3ccccc3)nn2cc1C | 145 to 146 °C
Cc1cc2c(cc1O)C(C)(C)CC1(CC(C)(C)c3cc(OC(C)(C)CO)c(C)cc3O1)O2 (stereo not given) | 188 to 189 °C
O=COC[C@@H]1C(=O)N[C@H]1SC(c1ccccc1)(c1ccccc1)c1ccccc1 (relative stereo) | 143 to 144 °C
CS(=O)(=O)c1ccc(-n2nc(C(F)(F)F)nc2-c2ccc(Br)cc2)cn1 | 141 to 143 °C
COC1(c2ccc(C(C)(C)C)cc2)CC1C(=O)N[C@H](C)c1ccc(NS(C)(=O)=O)c(C)c1 (stereo not given in full) | 231 °C
COc1ccc(C2(C)CCC(=O)O2)cc1OC (stereo not given) | 71.2 °C
CCOc1cc2c(cc1OCC)C1CN(C)CCC1N=C2c1ccc(C#N)cc1 (single isomer, unassigned; (-)) | 141 °C
CC(CN(C)C)Nc1ccnc2cc3c(cc12)OCO3 (stereo not given) | 71 to 72 °C
COc1cc(C(=O)OCCN(CCOC(=O)c2cc(OC)c(OC)c(OC)c2)CCS(=O)(=O)O)cc(OC)c1OC | 178 to 182 °C
COc1ccc(C(=O)C2=C(O)C(=O)N(c3nncs3)C2c2ccc(C(C)(C)C)cc2)cc1 (stereo not given) | 289 to 291 °C
CNc1nc2ccc(Cl)cc2c2nc(-c3ccco3)nn12 | 166 to 168 °C
Cc1cccc(-c2n[nH]cc2-c2ccc(F)c(-c3ccc4c(c3)CCS4(=O)=O)c2)n1 | 107 to 109 °C
CC1(C)NC(=O)N(CC(CS(=O)(=O)c2ccc(-c3cccc(CC#N)c3)cc2)N(O)C=O)C1=O (stereo not given) | 186 to 189 °C
CCCCc1nc(C(C)(O)CC)c(C#N)n1C(c1ccccc1)(c1ccccc1)c1ccccc1 (stereo not given) | 90 to 93 °C
Cc1c(O)c(=O)ccn1C(C)C | 239 to 242 °C
COc1ccc2cc(CCCOCCCCCCNCC(O)c3cc(Cl)c(N)c(Cl)c3)ccc2c1 (stereo not given) | 102 to 104 °C
O=c1c2ccccc2nc2n1CS(=O)(=O)N2 | > 300 °C

SMILES | melting point
O=C1c2ccccc2CN1CC1CCN(CCc2c[nH]c3ccccc23)CC1 | 225 to 230 °C
O=C1CCc2c(F)cc(F)cc2C1 | 46 °C
Cc1ccc2c3c(ccc2n1)OCC(CNCC1CCc2[nH]c4cc(Cl)c(F)cc4c2C1)O3 (stereo not given) | 243 to 244 °C
COc1ccc(S(=O)(=O)Nc2ccccc2NC(=O)c2ccccc2C)cc1 | 129 to 130 °C
Cn1nc(-c2cccs2)n(C)c1=O | 108 to 110 °C
FC(F)(F)c1n[nH]c2ccc(Br)cc12 | 168 to 169 °C
OCCOc1ccc(C2CNCCN2)cc1 (racemic) | 141 °C
CCCc1nc(SSc2nc(CCC)n(-c3ccc([N+](=O)[O-])cc3)n2)nn1-c1ccc([N+](=O)[O-])cc1 | 172 °C
Nc1ccc(C2CCN(C(=O)C(F)(F)F)CC2)cc1 | 111 to 112 °C
COc1ccc(C=NNC(=O)COc2ccc(C3=NNC(=O)CC3)cc2Cl)cc1 | 220 to 222 °C
COc1cc(OC)c(C(O)=S)cc1C | 151 to 153 °C
CC(CCC(=O)O)C1CCC2C3CCC4CC(OC=O)CCC4(C)C3CC(OC=O)C12C (stereo not given) | 123 to 125 °C
CC1(C)CC(N(c2nc(Cl)nc(N(C3CC(C)(C)N(O)C(C)(C)C3)C3CC(C)(C)N(O)C(C)(C)C3)n2)C2CC(C)(C)N(O)C(C)(C)C2)CC(C)(C)N1O | 252 to 256 °C
CC(=O)N(CC(=O)N1CC1C#N)c1ccccc1 (stereo not given) | 69 to 75 °C
CC(C)c1ccc(N(Cc2ccc(N(C)C)cc2)C(=O)C2CCSc3ccccc32)cc1 (stereo not given) | 118 °C
COc1ccc2c(c1)CCC1CCN(C)C(=O)C(CC3(C)OCCO3)=C21 (stereo not given) | 112 to 115 °C
O=[N+]([O-])c1ccc(Oc2ncc(C(F)(F)F)cc2Cl)cc1 | 90 to 91 °C
CCCc1c(C(=O)C(C)C)c2ccc(C(=O)O)cc2n1Cc1ccccc1C#N | 214 to 215 °C
O=C(c1ccc(O)cc1)c1sc2ccccc2c1-c1ccccc1 | 204 to 205 °C
CCN1c2ccccc2Sc2ccccc21 | 103 to 104 °C
COc1ccc(/C=C/c2ccncc2)cc1OC1CCCC1 | 108 °C
COC(=O)C(c1ccccc1)N1CCN(c2ccc(NC(=O)c3ccccc3-c3ccccc3)cc2)CC1 (stereo not given) | 125 °C
c1ccc(C2=Nc3ccccc3-n3ccc4cccc2c43)cc1 | 128 to 136 °C
O=c1[nH]c2cc(Cl)ccc2c(=O)n1S(=O)(=O)c1c(Cl)cccc1Cl | 260 to 261 °C
COc1ccc(-n2cnc(-c3cc(OC)c(OC)c(OC)c3)c2-c2ccc(OC)c(O)c2)cc1 | 65 to 67 °C
N#Cc1cc([N+](=O)[O-])c2sc(N3CCC4(CC3)OCCO4)nc(=O)c2c1 | 217 to 220 °C

The remaining lines, values ahead:

melting point | SMILES
114 to 116 °C | COc1cc(C(=O)C(=O)O)cc(OC)c1OCCOc1ccc2ccccc2c1
100 °C | COc1ccc(C(=O)C=CC(=O)O)c(OC)c1OC
164 to 168 °C | COC(=O)Cc1ccccc1S(=O)(=O)NC(=S)Nc1nc(OC)nc(OC)n1
99 to 103 °C | CCCCCCCCCCCC1Cc2cc(C(=O)O)ccc2N1 (racemic)
100 to 102 °C | COC1CCC(O)C(COS(=O)(=O)c2ccc(C)cc2)O1 (stereo not given)
115 °C | O=S(=O)(NCCCN1CCC(Oc2ccc(Cl)c(Cl)c2)CC1)c1ccc(-c2ccccn2)s1
120 °C | CCOC(=O)C(=Cc1cc(C(C)(C)C)c(O)c(C(C)(C)C)c1)c1cccnc1
178 to 180 °C | CCOC(=O)c1cn(CCF)c2cc(F)c(F)cc2c1=O
108 °C | Clc1ccc(NCCCNCC2CCc3ccccc3O2)nn1 (stereo not given)
95 to 96 °C | O=[N+]([O-])c1cccnc1NCc1ccc(Cl)cc1
166 to 167 °C | CCOC(=O)C1=C(C)NC(c2nccn2C)=NC1c1ccc(F)cc1Cl (stereo not given)
212 to 214 °C | CC(=Cc1ccc(C(=O)O)cc1)[N+](=O)[O-]
197 °C | COc1ccc2sc(C(=O)O)c(Oc3ccccc3)c2c1
70 to 72 °C | COC(=O)c1cccc2c(C(=O)c3ccccc3)c(C)oc12
109 °C | Brc1cnc(N=C(c2ccccc2)c2ccccc2)s1
172 to 174 °C | NC(=O)Cc1c(F)cccc1C(F)(F)F
232 to 235 °C | CCN(CC)CCN1NC(N)=c2cc3c(nc21)=CC(O)(OC)C=C3 (stereo not given)
180 to 181 °C | CCCCc1nc(Cl)c(C=CC(=O)OCC)n1Cc1ccc(NC(=O)c2ccccc2C(=O)O)cc1
165 to 166 °C | OCC1OC(n2ncc3c(SCC=Cc4ccccc4)ncnc32)C(O)C1O (stereo not given)
185 to 186 °C | CCOC(=O)c1cn(CC)c2nc(-c3ccncc3)c(F)cc2c1=O
143 to 144 °C | Cc1nn(-c2ccc(C(F)(F)F)cn2)cc1CCCOc1cc(CC(=O)O)n(C)n1
117 to 118 °C | CCOC(=O)Cc1ccc(NC(=O)CCc2cnoc2-c2ccc(Cl)cc2)cc1

melting point | SMILES
162 to 165 °C | CC(C)Cc1ccc(CCCN(C)[C@H]2CC[C@H](c3ccc4[nH]c(=O)oc4c3)CC2)cc1
195 to 197 °C | O=C(O)C1=Cc2ccc(O)cc2CC1
110 to 113 °C | CC(=O)Oc1cccc2sc(-c3ccc(C)cc3)nc12
43 °C | CC(=O)SCCCCC(=O)c1cccnc1
96 to 98 °C | CCc1cccc(NC(=N)Nc2cccc3ccccc23)c1
211 to 212 °C | O=C(Cc1ccc(F)cc1C(=O)O)Nc1cccc(/C=C/c2nc(C3CCC3)cs2)c1
205 to 208 °C | O=C(O)c1ccc2c([N+](=O)[O-])cc3c(c2c1)C(CCl)CN3 (stereo not given)
180 to 183 °C | O=C(O)Cc1c(Cl)nc(-c2ccc([N+](=O)[O-])cc2)n1Cc1ccccc1
144 to 147 °C | COC(=O)COC1c2ccccc2COc2ccc(OCc3ccc4cc(Cl)ccc4n3)cc21 (stereo not given)
68 to 70 °C | CN(C)CCCC1(O)c2ccccc2CCn2cccc21 (stereo not given)
120 °C | NC(=O)c1cnn2cccc2c1NCC1CCCO1 (stereo not given)
123 to 125 °C | Nc1ccc(CS(=O)(=O)NCCc2ccccc2)cc1
< 25 °C | COC(=O)CCCCCCCCCCC(C)=S
148 to 151 °C | NC(=O)c1cccc(-c2cccc(O)c2)c1
155 to 156 °C | O=C(O)C(=O)c1ccc(OCCOc2ccc3ccccc3c2)cc1F
77 to 80 °C | CCCCCCOC(=O)Oc1ccc2c(N3CCN(CCCC(=O)c4ccc(F)cc4)CC3)noc2c1
196 to 197 °C | O=C(/C=C/c1ccc(C(F)(F)F)cc1-c1cccnc1)Nc1ccc2[nH]ccc2c1
111 to 112 °C | CC(=O)CCc1nc2ccc3c(c2o1)C(CCNC(C)=O)CC3 (stereo not given)
128 to 130 °C | CN(C/C=C\COCC(=O)O)c1cnc(-c2ccccc2)c(-c2ccccc2)n1
173 °C | CN(C)C=C(C(=O)c1ccc(Cl)cc1Cl)n1cncn1
51 to 54 °C | COc1ccc(NS(=O)(=O)c2ccc(N)cc2OC)cc1
